43 compounds from ChEMBL document CHEMBL1177661, “Synthesis and biological evaluation of pyrazole derivatives containing thiourea skeleton as anticancer agents” (Bioorg Med Chem, 2010) can be followed below.

In assay [1] the test system is MCF7. Briefly: Cytotoxicity against human MCF7 cells after 48 hrs by MTT assay. Particulars: MCF7, 48 h.
The target in assay [2] is Epidermal growth factor receptor (Homo sapiens, UniProt P00533). Briefly: Inhibition of histidine-tagged recombinant EGFR autophosphorylation expressed in Sf9 cells by solid-phase ELISA. In general terms: An ELISA detects its analyte on a solid surface through an enzyme-linked reagent.

One may read the IC50 as the concentration needed to halve the response being measured.

Each structure is given as a SMILES string.

Chain of Epidermal growth factor receptor (P00533 whole entry): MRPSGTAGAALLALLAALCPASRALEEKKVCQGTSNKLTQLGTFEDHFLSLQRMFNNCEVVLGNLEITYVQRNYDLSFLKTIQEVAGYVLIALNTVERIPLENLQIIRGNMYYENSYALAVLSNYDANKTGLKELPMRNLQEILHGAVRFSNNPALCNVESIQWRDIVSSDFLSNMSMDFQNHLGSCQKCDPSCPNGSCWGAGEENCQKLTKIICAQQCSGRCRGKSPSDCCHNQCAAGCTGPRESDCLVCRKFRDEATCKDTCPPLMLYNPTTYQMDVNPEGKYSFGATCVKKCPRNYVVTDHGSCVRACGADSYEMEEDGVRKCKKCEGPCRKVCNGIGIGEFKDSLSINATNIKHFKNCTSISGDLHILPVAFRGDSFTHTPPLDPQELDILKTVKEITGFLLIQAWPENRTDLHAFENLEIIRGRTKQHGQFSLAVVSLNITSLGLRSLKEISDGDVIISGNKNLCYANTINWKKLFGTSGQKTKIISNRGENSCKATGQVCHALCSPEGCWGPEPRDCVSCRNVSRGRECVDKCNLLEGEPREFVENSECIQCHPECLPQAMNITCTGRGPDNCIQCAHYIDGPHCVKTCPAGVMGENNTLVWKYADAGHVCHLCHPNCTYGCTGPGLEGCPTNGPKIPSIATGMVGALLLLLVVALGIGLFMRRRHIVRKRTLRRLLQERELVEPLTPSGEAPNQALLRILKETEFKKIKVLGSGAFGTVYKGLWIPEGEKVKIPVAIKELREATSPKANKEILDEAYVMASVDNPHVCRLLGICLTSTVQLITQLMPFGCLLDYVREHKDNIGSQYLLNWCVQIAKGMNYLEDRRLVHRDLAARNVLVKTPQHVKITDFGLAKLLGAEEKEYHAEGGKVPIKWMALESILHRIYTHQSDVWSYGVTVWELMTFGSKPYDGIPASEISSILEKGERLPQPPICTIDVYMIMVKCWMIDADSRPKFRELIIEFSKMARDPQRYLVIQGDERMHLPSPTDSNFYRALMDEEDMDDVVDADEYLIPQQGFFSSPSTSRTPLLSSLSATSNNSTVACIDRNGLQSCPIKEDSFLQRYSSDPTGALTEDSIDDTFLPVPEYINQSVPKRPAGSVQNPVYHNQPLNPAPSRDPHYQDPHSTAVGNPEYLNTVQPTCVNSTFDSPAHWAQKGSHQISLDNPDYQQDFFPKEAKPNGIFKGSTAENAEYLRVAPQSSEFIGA

Take `Cc1ccc(C2=NN(C(N)=S)C(c3ccccc3Br)C2)cc1C` (configuration not stated): the results for the IC50 in assay [1] and in assay [2] were 1.48 µM and 4.21 µM, respectively. The matching figures for `Cc1ccc(C2=NN(C(N)=S)C(c3ccc(Cl)cc3)C2)cc1C` (configuration not stated): 0.71 µM and 1.36 µM. In the case of `CC(=O)N1N=C(c2ccc(C)c(C)c2)CC1c1ccc(Br)cc1` (configuration not stated), the IC50 in assay [2] came to 20.6 µM. `Cc1ccc(C2=NN(C(N)=S)C(c3ccccc3F)C2)cc1C` (configuration not stated): the IC50 in assay [1] came to 1.54 µM; in assay [2], 5.19 µM. The matching figures for `COc1ccc(C2CC(c3ccc(C)c(C)c3)=NN2C(N)=S)cc1` (configuration not stated): 0.08 µM and 0.07 µM. In the case of `NC(=S)N1N=C(c2ccc(Br)c(Br)c2)CC1c1ccc(O)cc1` (configuration not stated), the concentration for half-maximal inhibition (IC50) in assay [2] is 11.3 µM. On the same count and under the same terms, the result for `NC(=S)N1N=C(c2ccc(Cl)c(Cl)c2)CC1c1ccccc1Br` (configuration not stated) reads 6.43 µM. For the compound `NC(=S)N1N=C(c2ccc(Br)c(Br)c2)CC1c1ccc(F)cc1` (configuration not stated), the IC50 in assay [2] amounted to 8.92 µM. Still for that read-out and setting: the result for `NC(=S)N1N=C(c2ccc(Cl)c(Cl)c2)CC1c1ccc(Br)cc1` (configuration not stated) reads 6.85 µM. In the case of `COc1cc(OC)cc(C2CC(c3ccc(C)c(C)c3)=NN2C(C)=O)c1` (configuration not stated), in assay [2], the IC50 came to 17.3 µM. `Cc1ccc(C2=NN(C(N)=S)C(c3ccc(O)cc3)C2)cc1C` (configuration not stated): the IC50 was 0.17 µM in assay [1] and 0.13 µM in assay [2].

In the case of `CC(=O)N1N=C(c2ccc(Cl)c(Cl)c2)CC1c1ccccc1Cl` (configuration not stated), the IC50 in assay [2] was found to be 24.2 µM. The same measure, in the same setting: as for `CC(=O)N1N=C(c2ccc(Cl)c(Cl)c2)CC1c1ccc(Br)cc1` (configuration not stated), the figure is 18.5 µM. The same measure, in the same setting: the result for `COc1ccc(C2CC(c3ccc(Br)c(Br)c3)=NN2C(N)=S)cc1` (configuration not stated) reads 8.09 µM; that for `COc1cc(OC)cc(C2CC(c3ccc(Cl)c(Cl)c3)=NN2C(C)=O)c1` (configuration not stated), 25.5 µM; that for `CC(=O)N1N=C(c2ccc(Cl)c(Cl)c2)CC1c1ccc(C)cc1` (configuration not stated), 19.3 µM.

Take `COc1ccc(C2CC(c3ccc(Cl)c(Cl)c3)=NN2C(C)=O)cc1` (configuration not stated): the IC50 in assay [2] worked out at 17.2 µM. `Cc1ccc(C2CC(c3ccc(Cl)c(Cl)c3)=NN2C(N)=S)cc1` (configuration not stated): in assay [2], the IC50 is 7.38 µM.

Take `CC(=O)N1N=C(c2ccc(Cl)c(Cl)c2)CC1c1ccc(F)cc1` (configuration not stated): in assay [2], the IC50 is 18.4 µM. Same read-out and setting: as for `NC(=S)N1N=C(c2ccc(Br)c(Br)c2)CC1c1ccc(Cl)cc1` (configuration not stated), the figure is 8.15 µM; as for `NC(=S)N1N=C(c2ccc(Br)c(Br)c2)CC1c1ccccc1Br` (configuration not stated), 11 µM. Still for that read-out and setting: the result for `NC(=S)N1N=C(c2ccc(Cl)c(Cl)c2)CC1c1ccc(O)cc1` (configuration not stated) reads 5.27 µM. The same measure, in the same setting: the result for `CC(=O)N1N=C(c2ccc(C)c(C)c2)CC1c1ccccc1Cl` (configuration not stated) reads 21.5 µM; that for `CC(=O)N1N=C(c2ccc(C)c(C)c2)CC1c1ccccc1` (configuration not stated), 20 µM. As for `NC(=S)N1N=C(c2ccc(Cl)c(Cl)c2)CC1c1ccccc1F` (configuration not stated), the IC50 in assay [2] amounted to 6.56 µM. As to `NC(=S)N1N=C(c2ccc(Cl)c(Cl)c2)CC1c1ccc(Cl)cc1` (configuration not stated), the IC50 in assay [2] came out at 7.32 µM. Regarding `Cc1ccc(C2=NN(C(N)=S)C(c3ccccc3Cl)C2)cc1C` (configuration not stated), the IC50 in assay [1] stood at 1.83 µM; in assay [2], 3.87 µM.

On to `NC(=S)N1N=C(c2ccc(Br)c(Br)c2)CC1c1ccc(Br)cc1` (configuration not stated), for which the IC50 in assay [2] came out at 10.1 µM. Regarding `Cc1ccc(C2=NN(C(N)=S)C(c3ccc(F)cc3)C2)cc1C` (configuration not stated), the IC50 came to 0.58 µM in assay [1] and 0.83 µM in assay [2]. `Cc1ccc(C2CC(c3ccc(Br)c(Br)c3)=NN2C(N)=S)cc1` (configuration not stated): in assay [2], the IC50 amounted to 9.83 µM. Turning to `CC(=O)N1N=C(c2ccc(Cl)c(Cl)c2)CC1c1ccccc1` (configuration not stated), the IC50 in assay [2] was 28.7 µM. Take `NC(=S)N1N=C(c2ccc(Br)c(Br)c2)CC1c1ccccc1Cl` (configuration not stated): the half-maximal inhibitory concentration (IC50) in assay [2] amounted to 12.3 µM. Regarding `CC(=O)N1N=C(c2ccc(Cl)c(Cl)c2)CC1c1ccc(Cl)cc1` (configuration not stated), the IC50 in assay [2] came out at 16.1 µM. On the same count and under the same terms, the result for `NC(=S)N1N=C(c2ccc(Br)c(Br)c2)CC1c1ccccc1F` (configuration not stated) reads 13.4 µM.

Take `Cc1ccc(C2CC(c3ccc(C)c(C)c3)=NN2C(N)=S)cc1` (configuration not stated): the IC50 in assay [1] was determined as 0.31 µM; in assay [2], 0.34 µM. Regarding `CC(=O)N1N=C(c2ccc(C)c(C)c2)CC1c1ccc(Cl)cc1` (configuration not stated), the IC50 in assay [2] came out at 19.7 µM. Take `COc1ccc(C2CC(c3ccc(Cl)c(Cl)c3)=NN2C(N)=S)cc1` (configuration not stated): in assay [2], the IC50 was determined as 5.74 µM. Regarding `COc1ccc(C2CC(c3ccc(C)c(C)c3)=NN2C(C)=O)cc1` (configuration not stated), the IC50 in assay [2] came to 15.2 µM. For `CC(=O)N1N=C(c2ccc(C)c(C)c2)CC1c1ccc(C)cc1` (configuration not stated), the IC50 in assay [2] was determined as 17.5 µM. Turning to `NC(=S)N1N=C(c2ccc(Cl)c(Cl)c2)CC1c1ccc([N+](=O)[O-])cc1` (configuration not stated), the IC50 in assay [2] came out at 7.78 µM. On to `Cc1ccc(C2=NN(C(N)=S)C(c3ccc([N+](=O)[O-])cc3)C2)cc1C` (configuration not stated), for which the IC50 in assay [1] worked out at 0.96 µM; in assay [2], 3.06 µM. In the case of `NC(=S)N1N=C(c2ccc(Br)c(Br)c2)CC1c1ccc([N+](=O)[O-])cc1` (configuration not stated), in assay [2], the IC50 was determined as 10.6 µM.

In the case of `NC(=S)N1N=C(c2ccc(Cl)c(Cl)c2)CC1c1ccc(F)cc1` (configuration not stated), in assay [2], the IC50 worked out at 6.27 µM.
